{"source": "patent US20210115406A1", "about": "“HOST-BIOME INTERACTIONS” (EMULATE, INC., priority 2018, published 2021)", "key": {"[1]": {"tested_on": "Airway cells", "test": "Permeability of airway cells to Imipenem on Airway chip", "assay_type": "cell-based", "settings": "at lower concentrations", "experimental": "More specifically, in one embodiment of an Airway on-chip, duplicate chips are infected with PA 5919 WT or PA 5890 Mutant as described herein. Then, Imipenem is added to apical and basolateral fluids (cell media) for treatment with Imipenem at 50, 100 and 500 μg/ml for 24 hours with at least one chip without Imipenem. At 24 h post treatment, wash cells 3× to remove the test drug, i.e. antibiotic Imipenem. Cells lysed with 1% Triton for 10 minutes on chip, then the lyste is collected from the chip's channels. Lysates are serially diluted for CFU quantification. N=2\nAssay readouts: Viability of extracellular bacteria (apical sampling). Viability of intracellular bacteria (cell lysis and sampling). Two-way ANOVA with Dunnett's post-test **<0.05, **<0.001 (compared to untreated)."}, "[2]": {"tested_on": "Lamina Propria Immune Cells", "test": "Steroidal treatment of lamina propria immune cells on Intestine-Chip", "assay_type": "cell-based, human", "settings": "10 μM (10X clinically relevant dosage); before and after challenge with PAM2CSK4; ulcerative colitis patients"}, "[3]": {"tested_on": "Airway On-Chip cells", "test": "TUNEL apoptosis staining on Airway On-Chip", "assay_type": "cell-based", "settings": "3 μM for 3 h at 37° C., positive control", "experimental": "One embodiment of an Airway On-Chip is infected as described above for 2 hours and then treated 50 μg/ml tetracycline for 24 h (top and bottom channels under flow) for 24 h in order to limit bacterial replication (to avoid over-replication and cell lifting). Using this methodology, we performed longer infections on an airway chip and avoided cell death at 24 h. At 24 h, chips are fixed with 4% paraformaldehyde for 15 minutes and subsequently permeabilized with 0.25% triton in PBS. Apoptosis staining is performed following the Click-iT™ Plus TUNEL Assay for In Situ Apoptosis Detection, Alexa Fluor 647 assay: Click-iT™ Plus TUNEL Assay, Thermo Fisher Scientific Inc., 6 November 2017.\nThe TUNEL assay is based on the incorporation of modified dUTPs by the enzyme terminal deoxynucleotidyl transferase (TdT) at the 3′-OH ends of fragmented DNA, a hallmark as well as the ultimate determinate of apoptosis. Click-iT™ Plus TUNEL assay with the Alexa Fluor™ 647 dye is utilized to detect the fragment DNA (purple), nuclei are labelled with DAPI.\nStaurosporin, a prototypical ATP-competitive kinase inhibitor, is used as a positive control in this assay. […] As an additional positive control, chips are treated with 1 unit of DNAse I for 30 minutes at room temperature to induce TUNEL positive DNA strand breaks."}, "[4]": {"tested_on": "Caco-2 Intestine-Chip", "test": "Bacterial colonization, attachment and titration on Intestine-Chip", "assay_type": "cell-based, human", "settings": "SEM images of the Intestine-Chip", "source_text": "Top Channel: Caco-2. Day 1: Connect to flow. Day 3: Inoculation and Readouts: Imaging; Permeability; Bacterium Titer; etc. Day 8: Inflammatory Challenge. Readouts: Imaging; Permeability; Cytokines; Bacterium Titer; etc. Day 8 +4 hrs: Readouts: Imaging; Permeability; Cytokines; Bacterium Titer; etc. Day 8 +14 hrs: Readouts: Permeability; Cytokines; Effluent Titer; etc. Day 8 +14 hrs: Collect Endpoints: RNA; Immunofluorescence; Adherent Titer; etc.\nBarrier function is an indicator of epithelial cell health in the intestine. […] Each bacteria strain was added (inoculated) on chip at a concentration of 1×10^6 mL^−1.\nFIG. 44A Bacterial Titration (counts mL^−1) at Day 3 and Day 4 compared to adherent counts at Day 4.\nBacterial Titration. Viable, aerotolerant bifidobacterial strains colonized the Caco-2 Intestine-Chip and could be detected in plate Titers."}}}
{"compound": "C[C@@H](O)[C@H]1C(=O)N2C(C(=O)O)=C(SCCN=CN)C[C@H]12", "note": "[Imipenem]", "values": [{"measurement": "permeability of airway cells to the drug", "setting": "[1]", "result": "impermeable"}]}
{"compound": "C[C@]12C=CC(=O)C=C1CC[C@@H]1[C@@H]2C(=O)C[C@@]2(C)[C@H]1CC[C@]2(O)C(=O)CO", "note": "[Prednisone]", "values": [{"measurement": "inflammatory responses", "setting": "[2]", "result": "suppresses inflammatory responses"}]}
{"compound": "CN[C@@H]1C[C@H]2O[C@@](C)([C@@H]1OC)n1c3ccccc3c3c4c(c5c6ccccc6n2c5c31)C(=O)NC4", "note": "[staurosporin, Staurosporin]", "values": [{"measurement": "apoptotic cell numbers (TUNEL)", "setting": "[3]", "result": "increased apoptotic cell numbers"}]}
{"compound": "Lactobacillus rhamnosus strain GG [LGG]", "values": [{"measurement": "attachment and biofilm formation", "setting": "[4]", "result": "evidence of LGG attachment and biofilm formation"}]}
